Experimental data reported in PubChem BioAssay AID192 (DTP/NCI, 2004).
“And” between values parts separate entries of the source, which are not always exact repeats. Equal entries are not always repeated. Toxic doses and inconclusive results are not listed. Peptide text beside a SMILES is read from it. * marks the point of attachment. Cbz = O=C(OCc1ccccc1)*

Test system: BDF1 mice, B16 melanoma ip, median survival T/C
Assay: NCI In Vivo Anticancer Drug Screen. Data for tumor model B16 Melanoma (intraperitoneal) in B6D2F1 (BDF1) mice
Conditions: endpoint: median survival time, higher = longer survival
Method in brief: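 Transplantable tumor model; survival or tumor size measured; reported as T/C, treated over vehicle control.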

[1] = dose: 3.12 mg/kg/injection, schedule: Q01DX009 (ip), vehicle: Klucel (hydroxypropylcellulose) (HPC)
[2] = dose: 100.0 mg/kg/injection, schedule: Q01DX009 (ip), vehicle: saline
[3] = dose: 12.5 mg/kg/injection, schedule: Q01DX009 (ip), vehicle: saline
[4] = dose: 25.0 mg/kg/injection, schedule: Q01DX009 (ip), vehicle: saline
[5] = dose: 50.0 mg/kg/injection, schedule: Q01DX009 (ip), vehicle: saline
[6] = dose: 200.0 mg/kg/injection, schedule: Q01DX009 (ip), vehicle: saline
[7] = dose: 400.0 mg/kg/injection, schedule: Q01DX009 (ip), vehicle: saline
[8] = dose: 50.0 mg/kg/injection, schedule: Q01DX009 (ip), vehicle: Klucel (hydroxypropylcellulose) (HPC)
[9] = dose: 100.0 mg/kg/injection, schedule: Q01DX009 (ip), vehicle: Klucel (hydroxypropylcellulose) (HPC)
[10] = dose: 200.0 mg/kg/injection, schedule: Q01DX009 (ip), vehicle: Klucel (hydroxypropylcellulose) (HPC)
[11] = dose: 400.0 mg/kg/injection, schedule: Q01DX009 (ip), vehicle: Klucel (hydroxypropylcellulose) (HPC)
[12] = dose: 12.5 mg/kg/injection, schedule: Q01DX009 (ip), vehicle: saline with Tween-80
[13] = dose: 25.0 mg/kg/injection, schedule: Q01DX009 (ip), vehicle: saline with Tween-80
[14] = dose: 50.0 mg/kg/injection, schedule: Q01DX009 (ip), vehicle: saline with Tween-80
[15] = dose: 100.0 mg/kg/injection, schedule: Q01DX009 (ip), vehicle: saline with Tween-80
[16] = dose: 200.0 mg/kg/injection, schedule: Q01DX009 (ip), vehicle: saline with Tween-80
[17] = dose: 0.78 mg/kg/injection, schedule: Q01DX009 (ip), vehicle: saline
[18] = dose: 1.56 mg/kg/injection, schedule: Q01DX009 (ip), vehicle: saline
[19] = dose: 3.12 mg/kg/injection, schedule: Q01DX009 (ip), vehicle: saline
[20] = dose: 6.25 mg/kg/injection, schedule: Q01DX009 (ip), vehicle: saline
[21] = dose: 6.25 mg/kg/injection, schedule: Q01DX009 (ip), vehicle: saline with Tween-80

COC1C(O)=C2C(=O)OC(C)(O)/C=C/C=C\C=C/C=C/C(c3ccccc3)NC(=O)/C=C/C=C/C=C/C=C/C2(C)C1O (stereo unspecified)
T/C (dose: 0.39 mg/kg/injection, schedule: Q01DX009 (ip), vehicle: Klucel (hydroxypropylcellulose) (HPC)): 103 % of control | T/C (dose: 0.78 mg/kg/injection, schedule: Q01DX009 (ip), vehicle: Klucel (hydroxypropylcellulose) (HPC)): 104 % of control | T/C (dose: 1.56 mg/kg/injection, schedule: Q01DX009 (ip), vehicle: Klucel (hydroxypropylcellulose) (HPC)): 96 % of control | T/C (dose: 1.56 mg/kg/injection, schedule: Q01DX009 (ip), vehicle: other): 104 % of control | T/C [1]: 106 % of control | T/C (dose: 3.12 mg/kg/injection, schedule: Q01DX009 (ip), vehicle: other): 103 % of control | T/C (dose: 6.25 mg/kg/injection, schedule: Q01DX009 (ip), vehicle: other): 101 % of control | T/C (dose: 12.5 mg/kg/injection, schedule: Q01DX009 (ip), vehicle: other): 97 % of control

CCCCCCCCCCCCO[P+](=O)OCCCCCCCCCCCC
T/C [2]: 88 % of control

OCC1OC(n2cnc3c(Cl)ncnc32)C(O)C1O (stereo unspecified)
T/C [3]: 123 % of control | T/C [4]: 102 % of control | T/C [5]: 108 % of control | T/C [2]: 105 % of control | T/C [6]: 106 % of control | T/C [7]: 106 % of control

CCCCNC(=O)OCC(C)(CCC)COC(N)=O (stereo unspecified)
T/C [8]: 92 % of control | T/C [9]: 92 % of control | T/C [10]: 94 % of control

OCCN1CCN(CC/C=C2\c3ccccc3COc3ccc(Cl)cc32)CC1
T/C (dose: 2.0 mg/kg/injection, schedule: Q01DX009 (ip), vehicle: saline): 105 % of control | T/C (dose: 4.0 mg/kg/injection, schedule: Q01DX009 (ip), vehicle: saline): 113 % of control

CCCCCCCCC(=O)NCCOC
T/C [8]: 104 % of control | T/C [9]: 101 % of control | T/C [10]: 101 % of control

COc1ccc(C(N)=O)cc1N=NN(C)C
T/C [1]: 111 % of control and 113 % of control | T/C (dose: 6.25 mg/kg/injection, schedule: Q01DX009 (ip), vehicle: Klucel (hydroxypropylcellulose) (HPC)): 109 % of control and 110 % of control | T/C (dose: 12.5 mg/kg/injection, schedule: Q01DX009 (ip), vehicle: Klucel (hydroxypropylcellulose) (HPC)): 110 % of control and 111 % of control | T/C (dose: 25.0 mg/kg/injection, schedule: Q01DX009 (ip), vehicle: Klucel (hydroxypropylcellulose) (HPC)): 115 % of control and 123 % of control | T/C [8]: 117 % of control

CC12C=CC3(CCC4C(C)(C)C(O)C(=O)CC4(C)C3CC1=O)C2 (stereo unspecified)
T/C [9]: 97 % of control | T/C [10]: 89 % of control | T/C [11]: 94 % of control

Cc1ccccc1SSc1ccccc1C
T/C [12]: 105 % of control | T/C [13]: 104 % of control | T/C [14]: 98 % of control | T/C [15]: 103 % of control | T/C [16]: 98 % of control

CCN1/C(=C/C(C)=C/c2sc3ccccc3[n+]2CC)Sc2ccccc21
T/C (dose: 0.03 mg/kg/injection, schedule: Q01DX009 (ip), vehicle: saline with Tween-80): 104 % of control | T/C (dose: 0.05 mg/kg/injection, schedule: Q01DX009 (ip), vehicle: saline with Tween-80): 100 % of control | T/C (dose: 0.1 mg/kg/injection, schedule: Q01DX009 (ip), vehicle: saline with Tween-80): 100 % of control

CCOC(=O)Nc1ccc(OC)cc1
T/C (dose: 100.0 mg/kg/injection, schedule: Q04DX003 (ip), vehicle: Klucel (hydroxypropylcellulose) (HPC)): 95 % of control | T/C (dose: 200.0 mg/kg/injection, schedule: Q04DX003 (ip), vehicle: Klucel (hydroxypropylcellulose) (HPC)): 100 % of control | T/C (dose: 400.0 mg/kg/injection, schedule: Q04DX003 (ip), vehicle: Klucel (hydroxypropylcellulose) (HPC)): 97 % of control

Nc1c2c(nc3ccccc13)CCCC2
T/C (dose: 0.19 mg/kg/injection, schedule: Q01DX009 (ip), vehicle: saline): 95 % of control | T/C (dose: 0.39 mg/kg/injection, schedule: Q01DX009 (ip), vehicle: saline): 95 % of control | T/C [17]: 100 % of control | T/C [18]: 95 % of control | T/C [19]: 102 % of control | T/C [20]: 91 % of control | T/C [3]: 100 % of control

CC1CNC(=S)O1 (stereo unspecified)
T/C [4]: 97 % of control | T/C [5]: 91 % of control | T/C [2]: 91 % of control | T/C [6]: 89 % of control | T/C [7]: 91 % of control

CCC1CN1P(=O)(N(CC)CC)N1CC1CC (stereo unspecified)
T/C [14]: 113 % of control | T/C [15]: 117 % of control

COc1cccc2c1C(=N)c1c(O)c3c(c(O)c1C2=O)C[C@@](O)(C(=O)CO)C[C@@H]3OC1CC(N)C(O)C(C)O1 (stereo partly specified)
T/C (dose: 25.0 mg/kg/injection, schedule: Q01DX001 (ip), vehicle: water): 230 % of control | T/C (dose: 50.0 mg/kg/injection, schedule: Q01DX001 (ip), vehicle: water): 292 % of control | T/C (dose: 100.0 mg/kg/injection, schedule: Q01DX001 (ip), vehicle: water): 307 % of control

OCCN1CCN(CCCN2c3ccccc3Oc3ccc(C(F)(F)F)cc32)CC1
T/C [17]: 105 % of control | T/C [18]: 100 % of control | T/C [19]: 107 % of control | T/C [20]: 102 % of control | T/C [3]: 87 % of control

CC(=O)Nc1ccc2c(Nc3ccc(NS(C)(=O)=O)cc3)c3ccccc3nc2c1
T/C (dose: 3.8 mg/kg/injection, schedule: Q01DX009 (ip), vehicle: saline sonified): 112 % of control | T/C (dose: 7.5 mg/kg/injection, schedule: Q01DX009 (ip), vehicle: saline sonified): 110 % of control | T/C (dose: 15.0 mg/kg/injection, schedule: Q01DX009 (ip), vehicle: saline with Tween-80): 162 % of control | T/C (dose: 30.0 mg/kg/injection, schedule: Q01DX009 (ip), vehicle: saline sonified): 164 % of control | T/C (dose: 30.0 mg/kg/injection, schedule: Q01DX009 (ip), vehicle: saline with Tween-80): 185 % of control | T/C (dose: 200.0 mg/kg/injection, schedule: Q01DX001 (ip), vehicle: saline sonified): 155 % of control | T/C (dose: 400.0 mg/kg/injection, schedule: Q01DX001 (ip), vehicle: saline sonified): 194 % of control

O=C(O)C1C(C(=O)O)C2(Cl)C(Cl)=C(Cl)C1(Cl)C2(Cl)Cl.[Fe] (stereo unspecified)
T/C [13]: 93 % of control | T/C [14]: 95 % of control | T/C [15]: 93 % of control

CCN(CC)CCOC(=O)N(c1ccccc1)c1ccccc1
T/C [20]: 104 % of control | T/C [3]: 100 % of control | T/C [4]: 104 % of control | T/C [5]: 95 % of control | T/C [2]: 86 % of control

NC(N)=Nc1ccc(C(=O)O)cc1
T/C (dose: 33.0 mg/kg/injection, schedule: Q01DX009 (ip), vehicle: saline with Tween-80): 100 % of control | T/C [14]: 96 % of control | T/C (dose: 75.0 mg/kg/injection, schedule: Q01DX009 (ip), vehicle: saline with Tween-80): 96 % of control

O=C(CCN1CCCCCCC1)c1cccc([N+](=O)[O-])c1
T/C [8]: 100 % of control | T/C [9]: 97 % of control

O=C(NC(Cc1ccccc1)C(=O)N1CCCC1C(=O)O)OCc1ccccc1 (stereo not drawn) (Cbz-Phe-Pro-OH; configuration not given here)
T/C [14]: 99 % of control | T/C [15]: 99 % of control | T/C [16]: 91 % of control

Cc1ccc(NC(=O)COc2ccc(Cl)cc2)cc1Cl
T/C (dose: 3.13 mg/kg/injection, schedule: Q01DX009 (ip), vehicle: saline with Tween-80): 101 % of control | T/C [21]: 106 % of control | T/C [12]: 93 % of control and 101 % of control | T/C [13]: 87 % of control | T/C [14]: 96 % of control

Cc1c2cc3c(c1O)C(=O)CC(O3)c1ccc(O)c(c1)-c1ccc(O)c(c1)C(=O)OCC1OC(O2)C(O)C(O)C1O (stereo unspecified)
T/C (dose: 0.13 mg/kg/injection, schedule: Q01DX009 (ip), vehicle: Klucel (hydroxypropylcellulose) (HPC)): 91 % of control | T/C (dose: 0.25 mg/kg/injection, schedule: Q01DX009 (ip), vehicle: Klucel (hydroxypropylcellulose) (HPC)): 94 % of control | T/C (dose: 0.5 mg/kg/injection, schedule: Q01DX009 (ip), vehicle: Klucel (hydroxypropylcellulose) (HPC)): 95 % of control | T/C (dose: 1.0 mg/kg/injection, schedule: Q01DX009 (ip), vehicle: Klucel (hydroxypropylcellulose) (HPC)): 94 % of control

O=[N+]([O-])c1cc2c(c([N+](=O)[O-])c1)OCOC2
T/C [10]: 100 % of control

CCCCN(CCCC)CCC(=O)c1ccc(OC)c2ccccc12
T/C [12]: 99 % of control | T/C [13]: 88 % of control

Cc1cc[n+](CCc2ccccc2)cc1
T/C [21]: 92 % of control | T/C [12]: 88 % of control | T/C [13]: 95 % of control | T/C [14]: 88 % of control

CC(=O)CC(=O)N1CCCCC1C (stereo unspecified)
T/C [9]: 109 % of control | T/C [10]: 112 % of control | T/C [11]: 110 % of control
